ChEMBL document CHEMBL5726339, “Ether compounds for treatment of complement mediated disorders” (2017)

Target: Complement factor D (Homo sapiens, UniProt P00746)
Assay: Enzyme Assay: Human factor D (purified from human serum, Complement Technology, Inc.) at 80 nM final concentration is incubated with test compound at various concentrations for 5 minutes at room temperature in 50 mM Tris, 1M NaCl, pH 7.5. A synthetic substrate Z-L-Lys-SBzl and DTNB (Ellman's reagent) are added to final concentrations of 100 µM each. The increase in color is recorded at OD405 nm in a microplate in kinetic mode over 30 minutes with 30 second time points in a […]. IC50 values are calculated by non-linear regression from the percentage of inhibition of complement factor D activity as a function of test compound concentration.

Chain of Complement factor D (P00746 whole entry): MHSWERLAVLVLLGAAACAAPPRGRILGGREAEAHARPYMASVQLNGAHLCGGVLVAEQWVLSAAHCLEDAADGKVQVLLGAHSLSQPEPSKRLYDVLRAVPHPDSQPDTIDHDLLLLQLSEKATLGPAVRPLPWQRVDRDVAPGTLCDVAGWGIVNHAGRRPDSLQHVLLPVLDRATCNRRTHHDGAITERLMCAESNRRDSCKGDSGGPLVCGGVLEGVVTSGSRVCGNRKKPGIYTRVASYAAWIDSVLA

SMILES | IC50 [µM]
CC(=O)c1cn(CC(=O)N2[C@@H]3C[C@@H]3C[C@H]2C(=O)Nc2cccc(-c3ccccc3Cl)c2F)c2ccc(Oc3ncc(Br)cn3)cc12 | < 1
CC(=O)c1cn(CC(=O)N2C[C@H](F)C[C@H]2C(=O)Nc2cccc(Br)n2)c2ccc(Oc3ncc(Br)cn3)cc12 | < 1
